Data on two molecules can be found in patent US10239856B2, “Synthesis of resorcylic acid lactones useful as therapeutic agents” (UNIVERSITY DE STRASBOURG, priority 2008, dated 2019).

In one series the test system is Her-2 (HSP90 client). Kind of series: Her-2 (HSP90 client) degradation (client depletion). The format is cell-based. To be noted: Her-2 degradation; read-out: Client Depletion. Here is the method: A number of the compounds of the invention were tested for affinity to HSP90α (see Kim et al., J. Biomol. Screen., 2004, 9, 375), Her-2 (HSP90 client) degradation (see Xu et al., J. Biol. Chem., 2001, 276, 3702), and cytotoxicity against SKBr3 and HCC1954, two breast cancer cell lines which over express Her-2.

The subject of a further series is HCC1954. Kind of series: Cytotoxicity against HCC1954 breast cancer cells. Type of series: cell-based. Conditions: Homo sapiens, second value of cell. The protocol:
(§1) Compounds of the invention were assayed for cytotoxicity in HCC1954 and SK-BR-3 tumor cells.

In a further series the test system is SKBr3. Put plainly: Cytotoxicity against SKBr3 breast cancer cells. The format is cell-based. To be noted: Homo sapiens, SK-BR-3, first value of cell. The protocol: as §1
The target in the next series is HSP90α (Homo sapiens, UniProt P07900). Put plainly: Affinity to HSP90α. The format is binding. To be noted: read-out: HSP90 affinity.
The test system of the next series is ErbB2 in SK-BR3. Kind of series: Degradation of HSP90 client ErbB2 in SK-BR3, Western blotting after 18 hrs treatment. The format is cell-based. To be noted: SK-BR3, 18 hrs treatment, E-oxime isomer. In general terms: In western blotting, separated proteins are transferred to a membrane and probed.
For series [1], the system named is BT-474 (breast tumor cell line) xenograft. Put plainly: BT-474 breast tumor xenograft in CB17/SCID mice. The format is in vivo. Also noted: Regression in tumor volume / Inhibition of tumor growth: dose or concentration left out as unconfirmed. The protocol: FIG. 1 depicts the tumor volume and animal weight change following treatment with compound 13a or control vehicle. Each point represents the mean of measurements from 5 (for vehicle) or 6 (for 13a) animals. The experiment was carried out for 28 days and tumor volumes were determined weekly by caliper measurement. Student's t-test was used to determine the statistical analysis of the difference between tumor volumes of vehicle-treated and drug-treated animals. Individual body weights were also determined weekly. Statistical significance was achieved (comparing tumor volumes in vehicle-treated and drug-treated animals) at day 21 for the q4d schedule (p=0.0497). In comparison, on the q2d schedule increasing statistical significance was achieved on days 14, 21, and 28, when comparing tumor volume of vehicle-treated and drug-treated animals (p=0.012, p=0.007, and p=0.0002, respectively).
Top panels represent hematoxylin & eosin (H & E) stained paraffin sections. Nuclei appear blue in color. The dark blue condensed nuclei in drug-treated tumors (right) are consistent with apoptotic cells. […] Bottom panels represent TUNEL (terminal deoxynucleotidyl transferase-mediated dUTP-biotin nick end labeling)-stained paraffin sections. The high preponderance of reddish-pink nuclei (positive for TUNEL staining) in the drug-treated tumors reflects DNA fragmentation which is characteristic of apoptosis. Blue arrowheads point to characteristic TUNEL positive nuclei.
Two schedules of 100 mg every other day (q2d) or every four days (q4d) during 28 days were investigated.
Based on the in vitro data shown in Table 3, compound 13a was further evaluated in vivo.

In a further series the test system is HSP90. To be noted: cited from earlier work.

Turning to `O=C1OCC/C=C/CC/C=C/C(=N/OCC(=O)N2CCCCC2)Cc2c(Cl)c(O)cc(O)c21` [13a], the IC50 with Her-2 (HSP90 client) was 35 nM; in the series on HCC1954, 320 nM; in the series with SKBr3, 125 nM; on HSP90α, 21 nM. Besides, the “Reduction of ErbB2 concentration compared with radicicol and 17-AAG” value in the series with ErbB2 in SK-BR3 is “significantly more effective than both radicicol and 17-AAG”. In addition, the Weight loss entry in series [1] (q2d and q4d schedules, 28 days) was “Neither the q2d nor the q4d schedules resulted in significant weight loss”. Moreover, in series [1] (q2d or q4d during 28 days), the “Inhibition of tumor growth” value is listed as “dose-dependent inhibition of the tumor growth”. For the same molecule, in series [1] (q2d schedule, 28 days), the “Regression in tumor volume” value was found to be 18%. The “Tumor histology: cellularity” value in series [1] (q2d schedule, 28 days) is “dramatic loss of cellularity”. In addition, the “Tumor nuclear TUNEL staining (apoptosis)” value in series [1] (q2d schedule, 28 days) is listed as “high degree of nuclear TUNEL staining”.
For the molecule `C[C@@H]1CC2O[C@@H]2CC/C=C/C(=O)Cc2c(Cl)c(O)cc(O)c2C(=O)O1` (some centres unmarked) [pochonin A], the “Inhibitor of HSP90” value in the series on HSP90 is reported as 90 nM.
